Legend:
Format in all cases: in vivo, Malus silvestris L. var. domestica Borkh.
[1] = test system: Rome Beauty apple-bearing cut-limbs; test: Long-term storage experiment with 1-MCP treatment; details: 1 ppm 1-MCP at 1° C. for twenty-four hours
Experimental: (§1) For Rome Beauty apples only, a long term storage experiment and an ascorbic acid dip solution/plant regulator spray experiment were also carried out. For the long-term storage experiment, sixty cut-limbs were harvested, packed in the perforated bags, and stored at 1° C. (nearly the freezing temperature of water). Half of the cut-limbs were treated with 0.0001% by volume (1 ppm) of 1-methylcyclopropene (1-MCP) at 1° C. for twenty-four hours before storage. […] It is possible, however, that MCP treatment would be beneficial in other applications, e.g. with different fruit types, varieties, cultivars, etc.

[2] = test system: Rome Beauty apples cut-limbs; test: Ascorbic acid treatment, visual quality during storage; details: for Fruit visual quality / Leaves Symptom / Leaves visual quality: Rome Beauty apples, ASA 0.1%, 30 mL, packaged, 20° C.
Experimental: (§2) The cut-limbs without 1-MCP treatment, after twenty-three and forty-two days of cold storage, were then transferred to room temperature (20° C.), and treated with the following five treatments: bagging, water dipping, bagging plus dipping, bagging […] the control. For the ascorbic acid dipping/abscisic acid spraying experiment, the following four treatments were carried out: ascorbic acid (0.1%) dipping only, coating with an abscission-inducing agent (ABA) such as 0.001% by volume (10 ppm) of abscisic acid added only, 0.1% by volume of ascorbic acid dipping plus coating with ABA added, and the control only. All of the treatments included dipping or coating (or both) and packaging in the perforated polyethylene bags.
(§3) Visual quality of leaves was scored with the widely used scale of 9=excellent, fresh; 7=good; 5=fair, slight discoloration; 3=mild discoloration and dryness; and 1=severe discoloration and dryness. Sensory quality of fruit was scored using a scale of 9=pleasant, fresh; 7=good; 5=bland, faint taste; 3=unpleasant taste; and 1=inedible. For both scales, a score of 5 is generally considered in post-harvest studies to be the threshold level of acceptability.

[3] = test system: Rome Beauty apples cut-limbs; test: Ascorbic acid dipping/abscisic acid spraying experiment; details: packaged
Experimental: as §1, §2

[4] = test system: cut-limbs of Golden Delicious apple; test: Citric acid immerging, visual quality of cut-limbs; details: 0.5% CA, 30 mL, packaged, 20° C.
From the text: as §3

[5] = 0.1% ascorbic acid dip solution
[6] = 10 ppm abscisic acid in the edible coatings

CC1=CC1 [1-MCP, 1-methylcyclopropene]
Fruit appearance ([1]; Rome Beauty cut-limbs): normal appearance | Leaves showing brown-black burn symptoms ([1]; Rome Beauty cut-limbs): approximately 68% | Phytotoxicity to the leaves ([1]; after four days of storage at 1° C.): severe phytotoxicity

O=C1O[C@H]([C@@H](O)CO)C(O)=C1O [ASA, ascorbic acid]
Fruit visual quality ([2]; day 1): 9.0 a | Leaves Symptom ([2]; day 1): Normal | Leaves visual quality ([2]; day 1): 8.5 a | Fruit visual quality ([2]; day 2): 9.0 a | Leaves Symptom ([2]; day 2): Normal | Leaves visual quality ([2]; day 2): 8.6 a | Fruit visual quality ([2]; day 3): 9.0 a | Leaves Symptom ([2]; day 3): Normal | Leaves visual quality ([2]; day 3): 8.3 a | Fruit visual quality ([2]; day 4): 9.0 a | Leaves Symptom ([2]; day 4): Normal | Leaves visual quality ([2]; day 4): 8.3 a | Fruit visual quality ([2]; day 5): 9.0 a | Leaves Symptom ([2]; day 5): Normal | Leaves visual quality ([2]; day 5): 8.4 a | Fruit visual quality ([2]; day 6): 9.0 a | Leaves visual quality ([2]; day 6): 8.2 a | Fruit visual quality ([2]; day 7): 8.5 a | Leaves visual quality ([2]; day 7): 8.0 a | Color and luster (FIG. 3C) ([2]; after seven days stored with water dipping and packaging, vs no-acid): visibly better color and luster | Shelf-life of the cut-limbs [3, 5]: increased | Water loss [3, 5]: decreased

O=C(O)CC(O)(CC(=O)O)C(=O)O [CA, citric acid]
Fruit visual quality ([4]; day 1): 9.0 | Leaves visual quality ([4]; day 1): 8.6 | Fruit visual quality ([4]; day 2): 9.0 | Leaves visual quality ([4]; day 2): 8.4 | Fruit visual quality ([4]; day 3): 9.0 | Leaves visual quality ([4]; day 3): 8.3 | Fruit visual quality ([4]; day 4): 8.5 | Leaves visual quality ([4]; day 4): 7.9 | Fruit visual quality ([4]; day 5): 8.5 | Leaves visual quality ([4]; day 5): 8.4 | Fruit visual quality ([4]; day 6): 8.5 | Leaves visual quality ([4]; day 6): 8.2 | Fruit visual quality ([4]; day 7): 8.5 | Leaves visual quality ([4]; day 7): 8.0

CC1=CC(=O)CC(C)(C)[C@@]1(O)/C=C/C(C)=C\C(=O)O [abscisic acid]
Shelf-life of the cut-limbs [3, 6]: increased | Water loss [3, 6]: decreased

Reference: patent US20080310991A1, “Perishable-fruit-bearing cut-limb preservation and distribution method, coating and shipping container therefor” (State of Oregon, acting by and through the State Board of …, priority 2007, published 2008)
